In US20230310504A1, “PLATELET MEMBRANE COATED NANOPARTICLES AND USES THEREOF” (CELLO THERAPEUTICS, INC., priority 2020, published 2023):

Legend:
[1] = system: MC38 murine colon adenocarcinoma; assay: Therapeutic efficacy in combination with doxorubicin in MC38 model; format: in vivo, C57BL/6 mice
Method: Therapeutic efficacy of PNP-R848 in combination with chemotherapy was also assessed (FIG. 8). […] Despite some promising initial results, all mice treated with doxorubicin, both with or without PNP-R848, succumbed after re-challenge with a 3-fold higher dose of cancer cells.
Therapeutic efficacy in combination with doxorubicin. Mice were implanted with 1 × 10^6 MC38 cells subcutaneously into the right flank, which were allowed to grow to an average size of ~30-40 mm^3. The mice received intratumoral treatments every other day for a total of 3 times. The treatment groups included: 8% sucrose (n = 6), free doxorubicin (n = 6), and doxorubicin + PNP-R848 (n = 6). Mice received 63 µg of doxorubicin and 15 µg of R848 per dose. For the combination treatment, doxorubicin and PNP-R848 were mixed pre-administration and the animal received one intratumoral injection containing both. Tumor growth and mouse weight were monitored every other day. Progression-free survival was defined as tumor volume < 200 mm^3. All the mice that rejected the initial MC38 inoculum were re-challenged subcutaneously using 3 × 10^6 MC38 cells on day 56 after the start of the first treatment. Five naive C57BL/6 mice that received the same MC38 tumor cell challenge were used as controls to verify tumorigenicity.

[2] = system: MC38 murine colon adenocarcinoma; assay: Therapeutic efficacy in a murine MC38 tumor model (15 µg and reduced 6 µg R848 dosage); format: in vivo, C57BL/6 mice; conditions: for long-term survival rate: intratumoral, every other day x3
Method: The antitumor efficacy of PNP-R848 was evaluated using an MC38 murine colon adenocarcinoma model in immunocompetent C57BL/6 mice (FIG. 4a). Each animal received a subcutaneous injection of 1 × 10^6 MC38 cells in the right flank, and the average tumor size was allowed to reach ~30-40 mm^3. At this point, the mice started receiving one of the following treatments: 8% sucrose as a negative control, free R848, PEG-NP loaded with R848 (PEG-NP-R848), or PNP-R848, each at a drug dosage of 15 µg per injection. Treatments were administered intratumorally every other day for a total of 3 times, after which the mice were monitored regularly to assess therapeutic efficacy (FIGS. 4b-e). […] Tumor growth was considerably delayed when treating with either free R848 or PEG-NP-R848, but there was significant disease progression in a majority of the mice by approximately 30 days after the start of treatment. […] Treatment efficacy was also evaluated when reducing the drug dosage by 2.5-fold to 6 µg of R848 per injection (FIG. 6).
In order to determine if the surviving animals had developed long-term immunity against MC38 cancer cells, the mice were re-challenged with a 3-fold higher inoculum subcutaneously into the right flank 56 days after initiation of the first treatment (FIGS. 4c,d). For the survivors that had been treated with either dose of PNP-R848, the second tumor challenge was rejected at a 100% rate. […] The remainder of the surviving animals in the other groups all rejected the re-challenge, with no tumor progression observed at least 100 days after the start of the initial treatment.
Therapeutic efficacy in a murine MC38 tumor model. Mice were implanted with 1 × 10^6 MC38 cells subcutaneously into the right flank, which were allowed to grow to an average size of ~30-40 mm^3. The mice were then intratumorally treated every other day for a total of 3 times. […] Tumor growth and mouse weight were monitored every other day. […]
Therapeutic efficacy in a murine MC38 tumor model at a reduced R848 dosage. […] Tumor growth and mouse weight were monitored every other day. […]

Row | Compound | survival ([1]; 63 µg doxorubicin intratumoral x3) | outcome after re-challenge ([1]; 3-fold higher dose of cancer cells, day 56) | long-term survival rate ([2]; 6 µg R848 per injection) [%] | long-term survival rate ([2]; 15 µg R848 per injection) [%] | overall survival after the tumor re-challenge ([2]; 6-µg dosage, 3-fold higher inoculum, day 56) [%]
1 | COc1cccc2c1C(=O)c1c(O)c3c(c(O)c1C2=O)C[C@@](O)(C(=O)CO)C[C@@H]3O[C@H]1C[C@H](N)[C@H](O)[C@H](C)O1 [doxorubicin] | prolonged survival, the improvement was modest | succumbed |  |  | 
2 | CCOCc1nc2c(N)nc3ccccc3c2n1CC(C)(C)O [free R848, Resiquimod] |  |  | 62.5 | 28.6 | 37.5
